Values joined by “and” are separate entries in the source; they are usually repeats but may differ in a detail not shown here. Equal entries are not always repeated. Inconclusive results and toxic doses are left out.
Tested on: P388 leukemia ip, CD2F1 mice, survival T/C
Assay: NCI In Vivo Anticancer Drug Screen. Data for tumor model P388 Leukemia (intraperitoneal) in CD2F1 (CDF1) mice
Details: endpoint: median survival time, higher = longer survival
Procedure, shortened: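 Mice carrying the transplanted tumor received test compound or vehicle. Survival was recorded in each group, and the value is the treated-group measurement divided by that of the vehicle-treated control group.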

[1] = dose: 25.0 mg/kg/injection, schedule: Q01DX009 (ip), vehicle: saline with Tween-80
[2] = dose: 50.0 mg/kg/injection, schedule: Q01DX009 (ip), vehicle: saline
[3] = dose: 100.0 mg/kg/injection, schedule: Q01DX009 (ip), vehicle: saline
[4] = dose: 100.0 mg/kg/injection, schedule: Q04DX003 (ip), vehicle: saline with Tween-80
[5] = dose: 200.0 mg/kg/injection, schedule: Q04DX003 (ip), vehicle: saline with Tween-80
[6] = dose: 400.0 mg/kg/injection, schedule: Q04DX003 (ip), vehicle: saline with Tween-80
[7] = dose: 60.0 mg/kg/injection, schedule: Q01DX005 (ip), vehicle: saline with Tween-80

## CN(Cc1cnc2nc(N)nc(N)c2n1)c1ccc(C(=O)NC(CCC(=O)OC(C)(C)C)C(=O)O)cc1 (stereo not drawn)
dose: 5.0 mg/kg/injection, schedule: Q03HX024 (ip), vehicle: sodium bicarbonate
  T/C: 156 % of control
dose: 10.0 mg/kg/injection, schedule: Q03HX024 (ip), vehicle: sodium bicarbonate
  T/C: 182 % of control
dose: 20.0 mg/kg/injection, schedule: Q03HX024 (ip), vehicle: sodium bicarbonate
  T/C: 230 % of control
dose: 20.0 mg/kg/injection, schedule: Q04DX003 (ip), vehicle: sodium bicarbonate
  T/C: 122 % of control
dose: 40.0 mg/kg/injection, schedule: Q03HX024 (ip), vehicle: sodium bicarbonate
  T/C: 269 % of control
dose: 80.0 mg/kg/injection, schedule: Q03HX024 (ip), vehicle: sodium bicarbonate
  T/C: 153 % of control

## CCCCCCCCCCCCCCCC(=O)OCC1OC(n2ccc(N)nc2=O)C(O)C1O (stereo not drawn)
dose: 0.29 mg/kg/injection, schedule: Q01DX009 (ip), vehicle: saline with Tween-80
  T/C: 104 % of control
dose: 0.44 mg/kg/injection, schedule: Q01DX009 (ip), vehicle: saline with Tween-80
  T/C: 104 % of control
dose: 0.66 mg/kg/injection, schedule: Q01DX009 (ip), vehicle: saline with Tween-80
  T/C: 122 % of control
dose: 0.88 mg/kg/injection, schedule: Q01DX009 (ip), vehicle: saline with Tween-80
  T/C: 152 % of control
dose: 1.32 mg/kg/injection, schedule: Q01DX009 (ip), vehicle: saline with Tween-80
  T/C: 166 % of control
dose: 2.0 mg/kg/injection, schedule: Q01DX009 (ip), vehicle: saline with Tween-80
  T/C: 185 % of control
dose: 3.0 mg/kg/injection, schedule: Q01DX009 (ip), vehicle: saline with Tween-80
  T/C: 200 % of control
dose: 3.13 mg/kg/injection, schedule: Q04DX003 (ip), vehicle: saline with Tween-80
  T/C: 163 % of control
dose: 6.25 mg/kg/injection, schedule: Q04DX003 (ip), vehicle: saline with Tween-80
  T/C: 181 % of control and 195 % of control
dose: 12.5 mg/kg/injection, schedule: Q04DX003 (ip), vehicle: saline sonified
  T/C: 204 % of control
dose: 12.5 mg/kg/injection, schedule: Q04DX003 (ip), vehicle: saline with Tween-80
  T/C: 218 % of control and 222 % of control
dose: 15.0 mg/kg/injection, schedule: Q01DX009 (ip), vehicle: saline with Tween-80
  T/C: 221 % of control and 345 % of control
dose: 20.0 mg/kg/injection, schedule: Q01DX001 (ip), vehicle: saline with Tween-80
  T/C: 154 % of control
dose: 20.0 mg/kg/injection, schedule: Q01DX009 (ip), vehicle: saline with Tween-80
  T/C: 228 % of control and 538 % of control and 548 % of control
dose: 24.0 mg/kg/injection, schedule: Q01DX009 (ip), vehicle: saline with Tween-80
  T/C: 344 % of control
[1]
  T/C: 170 % of control and 539 % of control
dose: 25.0 mg/kg/injection, schedule: Q04DX003 (ip), vehicle: saline sonified
  T/C: 250 % of control
dose: 25.0 mg/kg/injection, schedule: Q04DX003 (ip), vehicle: saline with Tween-80
  T/C: 254 % of control
dose: 31.75 mg/kg/injection, schedule: Q04DX002 (ip), vehicle: Klucel (hydroxypropylcellulose) (HPC)
  T/C: 250 % of control and 256 % of control
dose: 32.0 mg/kg/injection, schedule: Q04DX003 (ip), vehicle: saline with Tween-80
  T/C: 194 % of control and 264 % of control
dose: 37.5 mg/kg/injection, schedule: Q01DX001 (ip), vehicle: saline with Tween-80
  T/C: 181 % of control
dose: 40.0 mg/kg/injection, schedule: Q01DX001 (ip), vehicle: saline with Tween-80
  T/C: 204 % of control
dose: 48.0 mg/kg/injection, schedule: Q04DX003 (ip), vehicle: saline with Tween-80
  T/C: 216 % of control and 350 % of control
dose: 50.0 mg/kg/injection, schedule: Q01DX001 (ip), vehicle: Klucel (hydroxypropylcellulose) (HPC)
  T/C: 155 % of control
dose: 50.0 mg/kg/injection, schedule: Q04DX003 (ip), vehicle: saline sonified
  T/C: 250 % of control
dose: 60.0 mg/kg/injection, schedule: Q03DX003 (ip), vehicle: saline with Tween-80
  T/C: 536 % of control
dose: 62.5 mg/kg/injection, schedule: Q04DX002 (ip), vehicle: Klucel (hydroxypropylcellulose) (HPC)
  T/C: 263 % of control and 275 % of control
dose: 70.0 mg/kg/injection, schedule: Q03DX003 (ip), vehicle: saline with Tween-80
  T/C: 536 % of control
dose: 72.0 mg/kg/injection, schedule: Q04DX003 (ip), vehicle: saline with Tween-80
  T/C: 213 % of control and 511 % of control
dose: 75.0 mg/kg/injection, schedule: Q01DX001 (ip), vehicle: saline with Tween-80
  T/C: 181 % of control
dose: 80.0 mg/kg/injection, schedule: Q03DX003 (ip), vehicle: saline with Tween-80
  T/C: 459 % of control
dose: 90.0 mg/kg/injection, schedule: Q03DX003 (ip), vehicle: saline with Tween-80
  T/C: 378 % of control
dose: 125.0 mg/kg/injection, schedule: Q04DX002 (ip), vehicle: Klucel (hydroxypropylcellulose) (HPC)
  T/C: 263 % of control and 275 % of control

## c1ccc(CSC2=NCCCC2)cc1
dose: 100.0 mg/kg/injection, schedule: Q04DX002 (ip), vehicle: saline with Tween-80
  T/C: 98 % of control
dose: 200.0 mg/kg/injection, schedule: Q04DX002 (ip), vehicle: saline with Tween-80
  T/C: 105 % of control
dose: 400.0 mg/kg/injection, schedule: Q04DX002 (ip), vehicle: saline with Tween-80
  T/C: 100 % of control

## COc1cccc(/C=C2/C(=O)N(Cc3ccco3)SC2=S)c1OC
dose: 50.0 mg/kg/injection, schedule: Q01DX009 (ip), vehicle: Klucel (hydroxypropylcellulose) (HPC)
  T/C: 97 % of control
dose: 100.0 mg/kg/injection, schedule: Q01DX009 (ip), vehicle: Klucel (hydroxypropylcellulose) (HPC)
  T/C: 95 % of control
dose: 200.0 mg/kg/injection, schedule: Q01DX009 (ip), vehicle: Klucel (hydroxypropylcellulose) (HPC)
  T/C: 92 % of control

## NC(CC(=O)O)P(=O)(O)O (stereo not drawn)
[2]
  T/C: 93 % of control
[3]
  T/C: 98 % of control
dose: 200.0 mg/kg/injection, schedule: Q01DX009 (ip), vehicle: saline
  T/C: 107 % of control

## Cc1cc(NC(=O)Nc2cccc(C3=NCCN3)c2)ccc1NC(=O)Nc1cccc(C2=NCCN2)c1
[4]
  T/C: 108 % of control
[5]
  T/C: 108 % of control
[6]
  T/C: 120 % of control

## CC1(c2ccccc2)NN(S(=O)(=O)c2ccccc2)C(c2ccccc2)(c2ccccc2)/C1=N/Nc1ccccc1 (stereo not drawn)
dose: 50.0 mg/kg/injection, schedule: Q01DX001 (ip), vehicle: saline with Tween-80
  T/C: 93 % of control
dose: 100.0 mg/kg/injection, schedule: Q01DX001 (ip), vehicle: saline with Tween-80
  T/C: 88 % of control
dose: 200.0 mg/kg/injection, schedule: Q01DX001 (ip), vehicle: saline with Tween-80
  T/C: 89 % of control

## CN1CCC(CO)C1 (stereo not drawn)
dose: 12.5 mg/kg/injection, schedule: Q01DX009 (ip), vehicle: water
  T/C: 91 % of control
dose: 25.0 mg/kg/injection, schedule: Q01DX009 (ip), vehicle: water
  T/C: 91 % of control
dose: 50.0 mg/kg/injection, schedule: Q01DX009 (ip), vehicle: water
  T/C: 91 % of control

## COCN(CCc1ccccc1)CCN(C)C
[2]
  T/C: 113 % of control
[3]
  T/C: 109 % of control

## Nc1ncnc2nc(-c3ccc(C[P+](c4ccccc4)(c4ccccc4)c4ccccc4)cc3)[nH]c12
[7]
  T/C: 95 % of control
dose: 120.0 mg/kg/injection, schedule: Q01DX005 (ip), vehicle: saline with Tween-80
  T/C: 95 % of control
dose: 240.0 mg/kg/injection, schedule: Q01DX005 (ip), vehicle: saline with Tween-80
  T/C: 95 % of control

## C(C#Cc1ccccc1)#Cc1ccccc1
[1]
  T/C: 98 % of control
dose: 50.0 mg/kg/injection, schedule: Q01DX009 (ip), vehicle: saline with Tween-80
  T/C: 99 % of control
dose: 100.0 mg/kg/injection, schedule: Q01DX009 (ip), vehicle: saline with Tween-80
  T/C: 96 % of control
dose: 200.0 mg/kg/injection, schedule: Q01DX009 (ip), vehicle: saline with Tween-80
  T/C: 98 % of control

## CC1(C)CC[C@H](C2=CC(=O)c3c(O)ccc(O)c3C2=O)O1
dose: 1.25 mg/kg/injection, schedule: Q01DX009 (ip), vehicle: Klucel (hydroxypropylcellulose) (HPC)
  T/C: 117 % of control
dose: 2.5 mg/kg/injection, schedule: Q01DX009 (ip), vehicle: Klucel (hydroxypropylcellulose) (HPC)
  T/C: 115 % of control
dose: 5.0 mg/kg/injection, schedule: Q01DX009 (ip), vehicle: Klucel (hydroxypropylcellulose) (HPC)
  T/C: 119 % of control
dose: 10.0 mg/kg/injection, schedule: Q01DX009 (ip), vehicle: Klucel (hydroxypropylcellulose) (HPC)
  T/C: 118 % of control

## CC(=O)Nc1nnc(-c2coc3ccc(C)cc3c2=O)s1
dose: 6.25 mg/kg/injection, schedule: Q01DX005 (ip), vehicle: saline with Tween-80
  T/C: 99 % of control
dose: 12.5 mg/kg/injection, schedule: Q01DX005 (ip), vehicle: saline with Tween-80
  T/C: 88 % of control and 89 % of control
dose: 25.0 mg/kg/injection, schedule: Q01DX005 (ip), vehicle: saline with Tween-80
  T/C: 86 % of control
dose: 50.0 mg/kg/injection, schedule: Q01DX005 (ip), vehicle: saline with Tween-80
  T/C: 86 % of control

## N#CC1[C@@H](C(=O)c2ccccc2)N2C=Cc3ccccc3[C@@H]2[C@H]1C#N (stereo partly drawn)
[7]
  T/C: 90 % of control

## C=CCCCCCCCCC(=O)NCC(C)C
[4]
  T/C: 86 % of control
[5]
  T/C: 95 % of control
[6]
  T/C: 100 % of control
